Laboratory results published in the supplement of paper PMC10307832.

Tests used:
Test in all cases: relative viability (nuclei count vs DMSO), 5 days (fraction); higher = more cells survive
[1] = compound: C1=CC2=NC=CN=C2C=C1/C=C/3\C(=O)NC(=O)S3 + Nc1nc2[nH]cc(CCc3ccc(C(=O)N[C@@H](CCC(=O)O)C(=O)O)cc3)c2c(=O)[nH]1 [Pemetrexed] (partner 0.2 µM)
How it was run: (§1)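 Nuclei were stained with Hoechst during a one-step fixation (final 0.05% Triton X-100, 1% formaldehyde, 1 ug/ml Hoechst) carried out 5 days after dosing, then counted on 4× images. The cells, lung cancer lines in 1536-well plates, had been dosed by pin tool the day after seeding with one drug alone or a fixed anchor-drug dose plus five library-drug doses (not always all listed) in √10 steps. Relative viability is the nuclei count in treated wells divided by that in vehicle wells, and each value is the median of duplicate plates.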

BGJ398 + OSI-027 = compound: CCN1CCN(c2ccc(Nc3cc(N(C)C(=O)Nc4c(Cl)c(OC)cc(OC)c4Cl)ncn3)cc2)CC1 [BGJ398] + COc1cccc2cc(-c3nc([C@H]4CC[C@H](C(=O)O)CC4)n4ncnc(N)c34)[nH]c12 [OSI-027] (partner 0.5 µM)
How it was run: as §1

BGJ398 + Decitabine = compound: CCN1CCN(c2ccc(Nc3cc(N(C)C(=O)Nc4c(Cl)c(OC)cc(OC)c4Cl)ncn3)cc2)CC1 [BGJ398] + Nc1ncn([C@H]2C[C@H](O)[C@@H](CO)O2)c(=O)n1 [Decitabine] (partner 2 µM)
How it was run: as §1

BGJ398 + Olaparib = compound: CCN1CCN(c2ccc(Nc3cc(N(C)C(=O)Nc4c(Cl)c(OC)cc(OC)c4Cl)ncn3)cc2)CC1 [BGJ398] + O=C(c1cc(Cc2n[nH]c(=O)c3ccccc23)ccc1F)N1CCN(C(=O)C2CC2)CC1 [Olaparib] (partner 8 µM)
How it was run: as §1

Cell Line | relative viability ([1]; first compound 0.02 µM) | relative viability ([1]; first compound 0.06325 µM) | relative viability ([1]; first compound 0.2 µM) | relative viability ([1]; first compound 0.6325 µM) | relative viability ([1]; first compound 2 µM) | relative viability (BGJ398 + OSI-027; first compound 0.01 µM) | relative viability (BGJ398 + OSI-027; first compound 0.03162 µM) | relative viability (BGJ398 + OSI-027; first compound 0.1 µM) | relative viability (BGJ398 + OSI-027; first compound 0.3162 µM) | relative viability (BGJ398 + OSI-027; first compound 1 µM) | relative viability (BGJ398 + Decitabine; first compound 0.01 µM) | relative viability (BGJ398 + Decitabine; first compound 0.03162 µM) | relative viability (BGJ398 + Decitabine; first compound 0.1 µM) | relative viability (BGJ398 + Decitabine; first compound 0.3162 µM) | relative viability (BGJ398 + Decitabine; first compound 1 µM) | relative viability (BGJ398 + Olaparib; first compound 0.01 µM) | relative viability (BGJ398 + Olaparib; first compound 0.03162 µM) | relative viability (BGJ398 + Olaparib; first compound 0.1 µM) | relative viability (BGJ398 + Olaparib; first compound 0.3162 µM) | relative viability (BGJ398 + Olaparib; first compound 1 µM)
LC-2-ad | 0.292 | 0.286 | 0.276 | 0.283 | 0.279 | 0.763 | 0.935 | 0.832 | 0.779 | 0.829 | 0.699 | 0.855 | 0.899 | 0.771 | 0.852 | 0.766 | 0.759 | 0.694 | 0.677 | 0.749
SK-LU-1 | 1.03 | 1.1 | 1.02 | 0.967 | 0.798 | 0.333 | 0.4 | 0.362 | 0.272 | 0.35 | 0.62 | 0.572 | 0.761 | 0.527 | 0.584 | 0.461 | 0.579 | 0.539 | 0.348 | 0.329
ChaGo-K-1 | 0.263 | 0.277 | 0.262 | 0.265 | 0.256 | 0.512 | 0.491 | 0.567 | 0.548 | 0.435 | 0.503 | 0.477 | 0.562 | 0.558 | 0.537 | 0.42 | 0.423 | 0.437 | 0.387 | 0.434
COR-L 105 | 1.13 | 1.14 | 1.08 | 1.12 | 1.02 | 0.644 | 0.441 | 0.704 | 0.519 | 0.654 | 0.636 | 0.587 | 0.637 | 0.601 | 0.69 | 0.627 | 0.647 | 0.687 | 0.733 | 0.639
NCI-H1975 | 0.266 | 0.297 | 0.299 | 0.288 | 0.294 | 0.71 | 0.923 | 0.736 | 0.629 | 0.646 | 0.492 | 0.454 | 0.423 | 0.406 | 0.381 | 0.809 | 0.856 | 0.887 | 0.825 | 0.781
NCI-H1993 | 0.528 | 0.665 | 0.607 | 0.54 | 0.449 | 0.525 | 0.535 | 0.564 | 0.507 | 0.649 | 0.59 | 0.624 | 0.582 | 0.696 | 0.576 | 1.02 | 1.08 | 1.01 | 1.02 | 0.997
RERF-LC-KJ | 0.525 | 0.501 | 0.465 | 0.489 | 0.455 | 0.587 | 0.576 | 0.654 | 0.573 | 0.506 | 0.66 | 0.79 | 0.765 | 0.739 | 0.642 | 0.961 | 0.959 | 0.969 | 0.917 | 0.92
NCI-H23 | 0.605 | 0.79 | 0.636 | 0.6 | 0.578 | 0.588 | 0.726 | 0.692 | 0.518 | 0.569 | 0.303 | 0.375 | 0.279 | 0.271 | 0.325 | 0.333 | 0.297 | 0.303 | 0.371 | 0.268
